Data taken from US5344846A, “Compositions and methods for inhibiting deoxyhypusine synthase and the growth of cells” (The United States of America as represented by the …, priority 1992, dated 1994).
“Also recorded” adds a separate entry of the source.

biological target: T1, deoxyhypusine synthase from rat testis (Rattus norvegicus, UniProt Q6AY53); assay: Inhibition of deoxyhypusine synthase ([3H]deoxyhypusine formation from [3H]spermidine), IC50/Ki; format: biochemical; conditions: comparison with parent amine, bisguanylated counterpart or another inhibitor
T1 construct: as catalyzed by deoxyhypusine synthase from rat testis; from tissue; host or cells: rat testis
T1 sequence (Q6AY53 1-369): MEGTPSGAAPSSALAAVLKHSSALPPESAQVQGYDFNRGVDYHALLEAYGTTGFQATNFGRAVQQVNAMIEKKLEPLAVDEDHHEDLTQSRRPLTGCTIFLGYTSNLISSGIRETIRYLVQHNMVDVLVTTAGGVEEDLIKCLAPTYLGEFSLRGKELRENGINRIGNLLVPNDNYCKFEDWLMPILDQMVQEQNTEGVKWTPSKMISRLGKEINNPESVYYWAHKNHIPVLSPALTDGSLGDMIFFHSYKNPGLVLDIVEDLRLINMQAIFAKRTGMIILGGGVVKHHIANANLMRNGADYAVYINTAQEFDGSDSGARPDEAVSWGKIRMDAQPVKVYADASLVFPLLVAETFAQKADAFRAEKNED
Experimental: The enzyme assay was performed as previously described (see Wolff et al. (1990) J. Biol. Chem. 265:4793-4799; and Park et al. (1991) J. Biol. Chem. 266:7988-7994). A typical assay mixture included 0.2M glycine, 1 mM dithiothreitol, 0.5 mM NAD^+, 2.4 micromolar (μM) [1,8-^3 H] spermidine, 1 μM ec-eIF-5A(Lys), 25 micrograms (μg) bovine serum albumin, and 3-15 units of enzyme in a total volume of 20 microliters (μl). Incubations were carried out at pH 9.3 and 37° C. for 1 hour. […] Percent inhibition was plotted versus log inhibitor concentration in order to obtain graphic estimates of IC50 values, i.e., the concentrations inhibiting [^3 H]deoxyhypusine production by 50%. The IC50 values reported in the tables were calculated by fitting the data points to equation 1 where x=% inhibition and I is the inhibitor concentration. [formula] The nature of the inhibition was determined by plotting reciprocal velocities of [^3 H]deoxyhypusine production against reciprocals of [^3 H]spermidine concentrations at a constant fixed level of ec-eIF-5A(Lys) (1 μM) and at set inhibitor concentrations. […] Estimates of Ki values were made by fitting the data to equation 2; wherein v is the velocity of the reaction, V is the maximum velocity, S is the substrate concentration, Km is Michaeli's constant, Ki is the inhibition constant, and I is the inhibitor concentration. [formula] All fits were performed by means of an interactive curve-fitting program, MLAB, developed and modified at the National Institutes of Health to run on an IBM personal computer.

Molecule	relative inhibitory potency (in words)
N=C(N)NCCCNCCCNC(=N)N [Compound 45, N^1,N^7 -bisguanyl caldine]	inhibition not widely different from its parent amine
N=C(N)NCCCCCCNC(=N)N [Compound 41, N^1,N^6-bisguanyl-1,6-diaminohexane]	inhibition not widely different from its parent amine
N=C(N)NCCCNCCCN [Compound 48, N^1 -guanylcaldine]	far exceeding the parent amines, as well as their bisguanylated counterparts, in inhibitory potency; also recorded: uniformly more efficient inhibition
N=C(N)NCCCCCCCNC(=N)N [Compound 42, N^1,N^7-bisguanyl-1,7-diaminoheptane]	inhibition not widely different from its parent amine
N=C(N)NCCCCCCCCN [Compound 50, N^1-guanyl-1,8-diaminooctane]	far exceeding the parent amines, as well as their bisguanylated counterparts, in inhibitory potency; also recorded: uniformly more efficient inhibition
N=C(N)NCCCCCCCCNC(=N)N [Compound 43, N^1,N^8-bisguanyl-1,8-diaminooctane]	somewhat stronger an inhibitor than guazatine (compound 40), showed no better inhibition than the parent diamine, 1,8-diaminooctane (compound 7); also recorded: inhibition not widely different from its parent amine
N=C(N)NCCCCCCCN [Compound 49, N^1-guanyl-1,7-diaminoheptane]	far exceeding the parent amines, as well as their bisguanylated counterparts, in inhibitory potency; also recorded: strongest inhibition of the compounds tested; also recorded: uniformly more efficient inhibition

same assay, conditions: competitive vs spermidine

Molecule	Ki [nM]
N=C(N)NCCCCCCCNC(=N)N [Compound 42, N^1,N^7-bisguanyl-1,7-diaminoheptane]	1200
N=C(N)NCCCCCCCN [Compound 49, N^1-guanyl-1,7-diaminoheptane]	9.7

same assay, conditions: pH 9.3

Molecule	inhibition of deoxyhypusine synthase (in words)
NCCCCN [Compound 3, putrescine]	inhibit the enzyme
NCCCNCCCN [Compound 9, caldine]	some degree of inhibition
NCCCNCCCCNCCCN [Compound 12, spermine]	failure

same assay, conditions: pH 9.3, 37° C., 1 hour; 2.4 μM [3H]spermidine

Molecule	inhibition of deoxyhypusine synthase (in words)
CC(N)CCNCCCCN (stereo not shown) [Compound 35, 1-Methyl spermidine]	Some degree of inhibition
c1ccc(CNCCCCCCCCNCc2ccccc2)cc1 [Compound 25, N,N'-bis-benzyl-1,8-diaminooctane]	loss in binding
NCCCCCCCCN [Compound 7, 1,8-diaminooctane]	strong inhibition
N=C(N)NCCCNCCCNC(=N)N [Compound 45, N^1,N^7 -bisguanyl caldine]	somewhat reduced inhibition
CCCCCCCCN [Compound 13]	does not appear to interact to any significant extent
N=C(N)NCCCCN [Compound 47, agmatine]	moderate degree of inhibition; also recorded: mild degree of inhibition
NCCCCCNCCCN [Compound 11, N-(3-aminopropyl)cadaverine]	some degree of inhibition
NCCCNCCCON [Compound 39, N-(3-aminooxypropyl)-1,3-diaminopropane]	without effect; also recorded: does not function as an inhibitor
CN(CCCN)CCCN [Compound 30, N^4 -methylcaldine]	devoid of inhibitory activity; also recorded: do not interact with the active site of the enzyme
N=C(N)NCCCN [Compound 46, N^1-guanyl-1,3-diaminopropane]	without inhibitory property; also recorded: no inhibition was detected
NCCCN[C@H]1CC[C@@H](N)CC1 [Compound 32, N-(3-aminopropyl)-1,4-diaminocyclohexane]	failure to inhibit the enzyme
N=C(N)NCCCCCCNC(=N)N [Compound 41, N^1,N^6-bisguanyl-1,6-diaminohexane]	acted as inhibitors of deoxyhypusine synthase
N=C(N)NCCCNCCCN [Compound 48, N^1 -guanylcaldine]	excellent inhibitors
N=C(N)NCCCCCCCNC(=N)N [Compound 42, N^1,N^7-bisguanyl-1,7-diaminoheptane]	acted as inhibitors of deoxyhypusine synthase
NCCCN[C@H]1CC[C@H](N)CC1 [Compound 33, N-(3-aminopropyl)-1,4-diaminocyclohexane]	failure to inhibit the enzyme
N=C(N)NCCCNC(=N)N [Compound 44, N^1,N^3-bisguanyl-1,3-diaminopropane]	without inhibitory property; also recorded: no inhibition was detected
NCCCCCCN [Compound 5, 1,6-diaminohexane]	displays inhibition
N=C(N)NCCCCCCCCN [Compound 50, N^1-guanyl-1,8-diaminooctane]	excellent inhibitors
NCCCN1CCC(CN)CC1 [Compound 31, 1-(3-Aminopropyl)-4-aminomethylpiperidine]	failure to inhibit the enzyme
NCCCCCN [Compound 4, cadaverine]	does not
NCCCCCCCN [Compound 6, 1,7-diaminoheptane]	strong inhibition
CC(C)(CCCN)NCCCN [Compound 34, 5,5-dimethylspermidine]	abolished inhibition; also recorded: failure to inhibit the enzyme
N=C(N)NCCCCCCCCNC(=N)N [Compound 43, N^1,N^8-bisguanyl-1,8-diaminooctane]	acted as inhibitors of deoxyhypusine synthase
N=C(N)NCCCCCCCN [Compound 49, N^1-guanyl-1,7-diaminoheptane]	excellent inhibitors

same assay, conditions: pH 9.3, 37° C., 1 hour; 2.4 μM [3H]spermidine; listed as 1,3-diaminopropane

Molecule	inhibition of deoxyhypusine synthase (in words)
NCCCN [Compound 2, 1,3-diaminopropane]	inhibit

same assay, conditions: pH 9.3, 37° C., 1 hour; 2.4 μM [3H]spermidine; listed as compound 2

Molecule	inhibition of deoxyhypusine synthase (in words)
NCCCN [Compound 2, 1,3-diaminopropane]	exerts product inhibition; also recorded: inhibit the enzyme

same assay, conditions: varied [3H]spermidine, ec-eIF-5A(Lys) fixed at 1 μM

Molecule	type of inhibition (kinetics)
NCCCN [Compound 2, 1,3-diaminopropane]	competitive

same assay, conditions: vs apparent Km for spermidine (4.5±0.7 μM)

Molecule	Ki, fold less than the apparent Km for spermidine
N=C(N)NCCCCCCCN [Compound 49, N^1-guanyl-1,7-diaminoheptane]	about 450 fold

same assay, conditions: vs parent caldine (45 vs 9)

Molecule	increase in IC50 by bisguanylation [fold]
N=C(N)NCCCNCCCNC(=N)N [Compound 45, N^1,N^7 -bisguanyl caldine]	5

biological target: T2, deoxyhypusine synthase (Rattus norvegicus, UniProt Q6AY53); assay: not given; conditions: earlier publications; cited from earlier work
T2 construct: full-length homotetramer; substrate was human eIF-5A precursor expressed in E. coli
T2 sequence (Q6AY53 1-369): T1 sequence (Q6AY53 1-369)

Molecule	substrate or cofactor function for deoxyhypusine synthase
altered eIF-5A precursor protein, in which Lys^50 is replaced by Arg: altered eIF-5A precursor protein, in which Lys^50 is replaced by Arg	is not
NC(=O)C1=CN([C@@H]2O[C@H](COP(=O)(O)OP(=O)(O)OC[C@H]3O[C@@H](n4cnc5c(N)ncnc54)[C@H](O)[C@@H]3O)[C@@H](O)[C@H]2O)C=CC1 [NADH]	negligible
NC(=O)c1ccc[n+]([C@@H]2O[C@H](COP(=O)([O-])OP(=O)(O)OC[C@H]3O[C@@H](n4cnc5c(N)ncnc54)[C@H](OP(=O)(O)O)[C@@H]3O)[C@@H](O)[C@H]2O)c1 [NADP^+]	negligible
NCCCC[C@H](N)C(=O)O [free lysine, lysine]	Neither free lysine nor synthetic 9- or 16-member peptides modeled on the amino acid sequence encompassing the lysine residue in eIF-5A precursors that undergoes modification to hypusine, function as substrates

same assay, conditions: earlier publications; listed as N-(3-aminopropyl)cadaverine; cited from earlier work

Molecule	substrate or cofactor function for deoxyhypusine synthase
NCCCCCNCCCN [Compound 11, N-(3-aminopropyl)cadaverine]	function as a substrate for deoxyhypusine synthase, albeit a poor one; also recorded: acts as a substrate

same assay, conditions: earlier publications; listed as caldine; cited from earlier work

Molecule	substrate or cofactor function for deoxyhypusine synthase
NCCCNCCCN [Compound 9, caldine]	no detectable substrate property

same assay, conditions: earlier publications; listed as compound 9; cited from earlier work

Molecule	substrate or cofactor function for deoxyhypusine synthase
NCCCNCCCN [Compound 9, caldine]	fails to serve as a substrate

same assay, conditions: earlier publications; listed as compound 11; cited from earlier work

Molecule	substrate or cofactor function for deoxyhypusine synthase
NCCCCCNCCCN [Compound 11, N-(3-aminopropyl)cadaverine]	functions as a substrate, albeit a poor one

system: not given; assay: not given; conditions: N1-amino group; cited from earlier work

Molecule	pKa of N1-amino group
NCCCCNCCCN [Compound 10, spermidine]	9.94

same assay, conditions: N8-amino group; cited from earlier work

Molecule	pKa of N8-amino group
NCCCCNCCCN [Compound 10, spermidine]	10.81

same assay, conditions: aminooxy group; cited from earlier work

Molecule	pKa of aminooxy group
NCCCNCCCON [Compound 39, N-(3-aminooxypropyl)-1,3-diaminopropane]	4.5-5.0
